Data reported in ChEMBL document CHEMBL1137635, “Multiple antibiotics exert delayed effects against the Plasmodium falciparum apicoplast” (Antimicrob Agents Chemother, 2007).
Active and inactive are the calls of the source. The rule behind the calls is not given here.

Experiments:
[1] = tested on: Plasmodium falciparum; test: Antimalarial activity as 2nd generation ring-stage chloroquine-sensitive Plasmodium falciparum 3D7 after 48 hrs by flow cytometry; format: functional, organism-based; conditions: 3D7, 48 h
[2] = tested on: Plasmodium falciparum; test: Antimalarial activity as 3rd generation ring-stage chloroquine-sensitive Plasmodium falciparum 3D7 after 48 hrs dose then 48 hrs drug-free; format: functional, organism-based; conditions: 3D7, 48 h
[3] = tested on: Plasmodium falciparum; test: Antimalarial activity as 2nd generation ring-stage chloroquine-resistant Plasmodium falciparum W2 after 48 hrs by flow cytometry; format: functional, organism-based; conditions: W2, 48 h
[4] = tested on: Plasmodium falciparum; test: Antimalarial activity as 3rd generation ring-stage chloroquine-resistant Plasmodium falciparum W2 after 48 hrs dose then 48 hrs drug-free; format: functional, organism-based; conditions: W2, 48 h, read-out: IC50
[5] = tested on: Plasmodium falciparum; test: Antimalarial activity as arrested schizont maturation in chloroquine-sensitive Plasmodium falciparum 3D7 infected human erythrocytes after 48 hrs at 100 nM dosed 96 hrs post infection; format: functional, organism-based
[6] = tested on: Plasmodium falciparum; test: Antimalarial activity as segregation of apicoplast in chloroquine-sensitive ACP1-GFP-labeled Plasmodium falciparum 3D7 schizont infected human erythrocytes at 100 nM dosed 96 hrs post infection; format: functional, organism-based
[7] = tested on: Plasmodium falciparum; test: Antimalarial activity as segregation of apicoplast in chloroquine-sensitive Plasmodium falciparum 3D7 progeny infected human erythrocytes at 100 nM dosed 96 hrs post infection; format: functional, organism-based
[8] = tested on: Plasmodium falciparum; test: Antimalarial activity as abnormal apicoplast morphology in chloroquine-sensitive ACP1-GFP-labeled Plasmodium falciparum 3D7 trophozoite infected human erythrocytes at 2xIC50 dosed 96 hrs post infection; format: functional
[9] = tested on: Plasmodium falciparum; test: Antimalarial activity as parasitaemia against chloroquine-sensitive ACP1-GFP-labeled Plasmodium falciparum 3D7 trophozoite infected human erythrocytes at 2xIC50 dosed 96 hrs post infection; format: functional
[10] = Cmax in human at 1000 mg, po once daily for 3 days; format: ADME, organism-based; parameters: dose 1000 mg, route oral; conditions: in vivo
[11] = Tmax in human at 1000 mg, po once daily for 3 days; format: ADME, organism-based; conditions: in vivo
[12] = Half life in human at 1000 mg, po once daily for 3 days; format: ADME, organism-based; conditions: in vivo
[13] = tested on: Plasmodium falciparum; test: Antimalarial activity as 3rd generation parasitaemia against chloroquine-sensitive Plasmodium falciparum 3D7 infected human erythrocytes after 96 hrs at 100 nM dosed 0-12 hrs post infection; format: functional
[14] = tested on: Plasmodium falciparum; test: Antimalarial activity as 3rd generation parasitaemia against chloroquine-sensitive Plasmodium falciparum 3D7 infected human erythrocytes after 96hrs at 100 nM dosed 0-24 hrs post infection; format: functional
[15] = tested on: Plasmodium falciparum; test: Antimalarial activity as 3rd generation parasitaemia against chloroquine-sensitive Plasmodium falciparum 3D7 infected human erythrocytes after 96hrs at 100 nM dosed 0-36 hrs post infection; format: functional
[16] = tested on: Plasmodium falciparum; test: Antimalarial activity as 3rd generation parasitaemia against chloroquine-sensitive Plasmodium falciparum 3D7 infected human erythrocytes after 96 hrs at 100 nM dosed 0-48 hrs post infection; format: functional
[17] = tested on: Plasmodium falciparum; test: Antimalarial activity as 3rd generation parasitaemia against chloroquine-sensitive Plasmodium falciparum 3D7 infected human erythrocytes after 96hrs at 100 nM dosed 12-24 hrs post infection; format: functional
[18] = tested on: Plasmodium falciparum; test: Antimalarial activity as 3rd generation parasitaemia against chloroquine-sensitive Plasmodium falciparum 3D7 infected human erythrocytes assessed after 96hrs at 100 nM dosed 12-36 hrs post infection; format: functional
[19] = tested on: Plasmodium falciparum; test: Antimalarial activity as 3rd generation parasitaemia against chloroquine-sensitive Plasmodium falciparum 3D7 infected human erythrocytes after 96hrs at 100 nM dosed 12-48 hrs post infection; format: functional
[20] = tested on: Plasmodium falciparum; test: Antimalarial activity as 3rd generation parasitaemia against chloroquine-sensitive Plasmodium falciparum 3D7 infected human erythrocytes after 96hrs at 100 nM dosed 24-36 hrs post infection; format: functional
[21] = tested on: Plasmodium falciparum; test: Antimalarial activity as 3rd generation parasitaemia against chloroquine-sensitive Plasmodium falciparum 3D7 infected human erythrocytes after 96hrs at 100 nM dosed 24-48 hrs post infection; format: functional
[22] = tested on: Plasmodium falciparum; test: Antimalarial activity as 3rd generation parasitaemia against chloroquine-sensitive Plasmodium falciparum 3D7 infected human erythrocytes after 96hrs at 100 nM dosed 36-48 hrs post infection; format: functional
[23] = Cmax in patient with kidney disease at 300 mg, po; format: ADME, organism-based; parameters: dose 300 mg, route oral; conditions: human, in vivo
[24] = Tmax in patient with kidney disease at 300 mg, po; format: ADME, organism-based; conditions: human, in vivo
[25] = tested on: Homo sapiens; test: Half life in patient with kidney disease at 300 mg, po; format: ADME, organism-based; conditions: in vivo

Question: Which results are given for `CC[C@H]1OC(=O)[C@H](C)[C@@H](O[C@H]2C[C@@](C)(OC)[C@@H](O)[C@H](C)O2)[C@H](C)[C@@H](O[C@@H]2O[C@H](C)C[C@H](N(C)C)[C@H]2O)[C@](C)(O)C[C@@H](C)CN(C)[C@H](C)[C@@H](O)[C@]1(C)O` [AZITHROMYCIN]?
Answer: IC50 [1]: 8.67 µM; IC50 [2]: 52.7 nM; IC50 [3]: 1460 nM; IC50 [4]: 31 nM; Activity [5]: inactive; Activity [6]: Active; Activity [7]: Active; Activity [8]: 83.4%; Activity [9]: 105%; Cmax [10]: 1100 nM; Tmax [11]: 2.4 h; half-life [12]: 3.08 days; Activity [13]: 91%; Activity [14]: 61%; Activity [15]: 30%; Activity [16]: 17%; Activity [17]: 59%; Activity [18]: 28%; Activity [19]: 18%; Activity [20]: 79%; Activity [21]: 68%; Activity [22]: 113%

Question: For `CCN(CC)CCCC(C)Nc1ccnc2cc(Cl)ccc12` (stereo not given) [CHLOROQUINE], which Cmax [23] is on record?
Answer: Its Cmax is 240 nM.

Question: What about the Tmax [24] of the same molecule?
Answer: Its Tmax is 6.6 h.

Question: And the t1/2 [25]?
Answer: The t1/2 was 10 days.
